Reference: article PMC10313921, “A living ex vivo platform for functional, personalized brain cancer diagnosis” (Cell Reports Medicine, 2023)

Assays:
Type in all cases: cell-based, human
[1] = test system: MB231Br (breast cancer metastasis to brain); assay: Drug screening of MB231Br tumor foci on OBSCs
[2] = test system: LN229 (established GBM line); assay: Drug screening of LN229 tumor foci on OBSCs
Procedure: (§1) Tumor cells (0.17 μL, 25,000 cells) were seeded onto OBSCs 2h after slicing, with one tumor seeded in the center of each hemisphere for a total of two tumor foci per OBSC. BSM was changed 24h after slicing. Fluorescence images were taken 0 h, 24 h, and 96 h post-seeding for normalization of tumor size. Bioluminescence readouts were also taken at 0 h, 24 h, and 96 h post seeding for assessment of cell viability. Luciferin was added underneath the culture insert and allowed to incubate for 10 min before bioluminescence measurement on an AMI optical imaging system.
(§2) Tumor cells were seeded onto OBSCs 2h after slicing as described above. One day after tumor seeding, six concentrations of each drug were diluted in the media underneath each culture insert, or XRad was applied using an X-Rad 320 Precision X-ray machine (n = 4 tumor foci per concentration; n ≥ 24 tumor foci per drug per cell line). Three days after treatment, the bioluminescence of live tumor cells was measured using an AMI optical imager (Spectral Instruments) and dose-response curves were generated. Tumor survival was normalized to day one tumor fluorescence and compared to an untreated control group.
(§3) Several weighted parameters were factored into an overall drug sensitivity score.
(§4) For DSS parameters 1–6, therapeutic windows were calculated by comparing OBSC toxicity and tumor response at the doses where tumor kill passed through the DSS parameter (Table S1 and S3). For DSS parameter 7, the therapeutic window was calculated by comparing the slopes through the tumor EC50 and the OBSC tox EC50. For DSS parameter 8, the therapeutic window was calculated by comparing the areas under tumor kill and OBSC tox curves. Normalized therapeutic window ratios for DSS parameters 1–8 within each drug-tumor-OBSC interaction were calculated in the following manner: within each window, values ranged from +1 to −1, where values approaching +1 signify increasing tumor kill relative to normal tissue toxicity, and values approaching −1 indicate agents where tumors remained highly viable while toxicity to the normal OBSC tissue was elevated. DSS parameters 9–11 were determined based on the behavior of the tumor in response to the drug, as defined above.
(§5) All individually weighed parameters were added together to generate the DSS. Overall DSS from 0 to 100 signify increasing efficacy in tumor kill relative to OBSC toxicity, while scores from 0 to −100 describe scenarios in which tumors thrive more effectively than OBSCs for a given treatment. Dose-response values were calculated via linear interpolation of raw data, not from best-fit curve equations.

[3] = test system: U373WT (wild-type established GBM line); assay: Drug screening of U373WT tumor foci on OBSCs
Procedure: as §1, §2, §3, §4, §5

[4] = test system: U373KO (RAD18 knockout of U373WT via CRISPR); assay: Drug screening of U373KO tumor foci on OBSCs; conditions: U373 KO on OBSCs
Procedure: as §1, §2, §3, §4, §5

[5] = test system: GBM8 (high-passage patient-derived GBM line); assay: Drug screening of GBM8 tumor foci on OBSCs
Procedure: as §1, §2, §3, §4, §5

[6] = test system: MS21 (low-passage patient-derived GBM line); assay: Drug screening of MS21 tumor foci on OBSCs
Procedure: as §1, §2, §3, §4, §5

[7] = test system: PDIPG (low-passage pediatric patient-derived line); assay: Drug screening of PDIPG tumor foci on OBSCs
Procedure: as §1, §2, §3, §4, §5

[8] = test system: 7 cell lines (MB231Br, LN229, U373WT, U373KO, GBM8, MS21, PDIPG); assay: Drug screening on OBSCs, summary over the panel of seven tumor lines; conditions: number of lines responding
Procedure: as §1, §2, §3, §4, §5

[9] = area under the dose-response curve, trapezoidal rule
[10] = dose required to kill 10% of the tumor
[11] = dose required to kill 25% of the tumor
[12] = dose required to kill 75% of the tumor

O=NN(CCCl)C(=O)NC1CCCCC1 [Lomustine]
EC50 ([1]; Homo sapiens, MB231BR on OBSCs, dose required to kill 50% of the tumor): 1610 µM
EC90 ([1]; Homo sapiens, MB231BR on OBSCs, dose required to kill 90% of the tumor): 1940 µM
IC50 ([1]; Homo sapiens, MB231Br on OBSCs, dosed day 1, survival via bioluminescence day 4, linear interpolation): 1610 µM
Killing at highest dose ([1]; MB231BR on OBSCs): 9.70E-01 fraction of tumor population killed
AUC ([1]; MB231BR on OBSCs, area under the dose-response curve, trapezoidal rule): 1.96E+03
EC10 ([1]; MB231BR on OBSCs, dose required to kill 10% of the tumor): 1280 µM
EC25 ([1]; MB231BR on OBSCs, dose required to kill 25% of the tumor): 1400 µM
EC75 ([1]; MB231BR on OBSCs, dose required to kill 75% of the tumor): 1820 µM
Slope ([1]; MB231BR on OBSCs, slope through the EC50): -1.20E-03
Killing at highest dose [2]: 1.00E+00 fraction of tumor population killed
EC50 ([2]; Homo sapiens, LN-229, dose required to kill 50% of the tumor): 960 µM
EC90 ([2]; Homo sapiens, LN-229, dose required to kill 90% of the tumor): 1780 µM
IC50 ([2]; Homo sapiens, LN-229, dosed day 1, survival via bioluminescence day 4, linear interpolation): 960 µM
AUC [2, 9]: 9.70E+02
EC10 [2, 10]: 417 µM
EC25 [2, 11]: 758 µM
EC75 [2, 12]: 1440 µM
Slope ([2]; slope through the EC50): -1.24E-03
EC50 ([3]; Homo sapiens, U373 MG, U373 WT on OBSCs, dose required to kill 50% of the tumor): 665 µM
EC90 ([3]; Homo sapiens, U373 MG, U373 WT on OBSCs, dose required to kill 90% of the tumor): 1960 µM
IC50 ([3]; Homo sapiens, U373 MG, U373 WT on OBSCs, dosed day 1, survival via bioluminescence day 4, linear interpolation): 665 µM
Killing at highest dose ([3]; U373 WT on OBSCs): 9.10E-01 fraction of tumor population killed
AUC ([3]; U373 WT on OBSCs, area under the dose-response curve, trapezoidal rule): 8.89E+02
EC10 ([3]; U373 WT on OBSCs, dose required to kill 10% of the tumor): 139 µM
EC25 ([3]; U373 WT on OBSCs, dose required to kill 25% of the tumor): 554 µM
EC75 ([3]; U373 WT on OBSCs, dose required to kill 75% of the tumor): 1380 µM
Slope ([3]; U373 WT on OBSCs, slope through the EC50): -2.24E-03
DSS (drug sensitivity score) ([3]; U373 WT, scale -100 to +100, tumor kill relative to OBSC toxicity): 64
EC50 ([4]; Homo sapiens, U373 MG, dose required to kill 50% of the tumor): 607 µM
EC90 ([4]; Homo sapiens, U373 MG, dose required to kill 90% of the tumor): 1830 µM
IC50 ([4]; Homo sapiens, U373 MG, dosed day 1, survival via bioluminescence day 4, linear interpolation): 607 µM
Killing at highest dose [4]: 9.70E-01 fraction of tumor population killed
AUC [4, 9]: 8.35E+02
EC10 [4, 10]: 83.3 µM
EC25 [4, 11]: 208 µM
EC75 [4, 12]: 1460 µM
Slope ([4]; slope through the EC50): -5.60E-04
Killing at highest dose ([5]; GBM8 on OBSCs): 1.00E+00 fraction of tumor population killed
AUC ([5]; GBM8 on OBSCs, area under the dose-response curve, trapezoidal rule): 1.54E+01
EC10 ([5]; GBM8 on OBSCs, dose required to kill 10% of the tumor): 0.685 µM
EC25 ([5]; GBM8 on OBSCs, dose required to kill 25% of the tumor): 1.71 µM
EC75 ([5]; GBM8 on OBSCs, dose required to kill 75% of the tumor): 5.45 µM
Slope ([5]; GBM8 on OBSCs, slope through the EC50): -1.46E-01
EC50 ([5]; Homo sapiens): 3.43 µM
EC90 ([5]; Homo sapiens): 8.71 µM
IC50 ([5]; Homo sapiens): 3.4 µM
EC50 ([6]; Homo sapiens): 1550 µM
EC90 ([6]; Homo sapiens): 1990 µM
IC50 ([6]; Homo sapiens): 1550 µM
Killing at highest dose ([6]; MS21 on OBSCs): 9.10E-01 fraction of tumor population killed
AUC ([6]; MS21 on OBSCs, area under the dose-response curve, trapezoidal rule): 1.61E+03
EC10 ([6]; MS21 on OBSCs, dose required to kill 10% of the tumor): 1120 µM
EC25 ([6]; MS21 on OBSCs, dose required to kill 25% of the tumor): 1280 µM
EC75 ([6]; MS21 on OBSCs, dose required to kill 75% of the tumor): 1830 µM
Slope ([6]; MS21 on OBSCs, slope through the EC50): -9.20E-04
EC50 ([7]; Homo sapiens): 688 µM
EC90 ([7]; Homo sapiens): 1880 µM
IC50 ([7]; Homo sapiens): 688 µM
Killing at highest dose ([7]; PDIPG on OBSCs): 9.30E-01 fraction of tumor population killed
AUC ([7]; PDIPG on OBSCs, area under the dose-response curve, trapezoidal rule): 9.11E+02
EC10 ([7]; PDIPG on OBSCs, dose required to kill 10% of the tumor): 354 µM
EC25 ([7]; PDIPG on OBSCs, dose required to kill 25% of the tumor): 425 µM
EC75 ([7]; PDIPG on OBSCs, dose required to kill 75% of the tumor): 1310 µM
Slope ([7]; PDIPG on OBSCs, slope through the EC50): -4.80E-04
response / killing over the 7 cell lines [8]: robust response
